Measurements from the NIST ThermoML archive (doi:10.1021/acs.jced.6b00158).

Experiment: xn = mol fraction of the nth substance listed
Details: 100 kPa, Liquid; for mass density: Vibrating tube method; for viscosity: Falling or rolling sphere viscometry

NC1CCCCC1 [cyclohexylamine] + CC(C)CO
Details | mass density, 303.15 K [kg/m3] | mass density, 308.15 K [kg/m3] | mass density, 313.15 K [kg/m3] | viscosity, 308.15 K [mPa·s] | viscosity, 313.15 K [mPa·s]
x2 = 0 | 857.79 | 853.24 | 848.71 | 1.572 | 1.417
x2 = 0.06096 | 856.68 | 852.18 | 847.71 | 1.697 | 1.515
x2 = 0.1205 | 856.11 | 851.64 | 847.15 | 1.791 | 1.578
x2 = 0.2357 | 852.93 | 848.49 | 844.09 | 1.917 | 1.678
x2 = 0.3458 | 848.23 | 843.79 | 839.39 | 2.022 | 1.761
x2 = 0.4513 | 842.2 | 837.83 | 833.46 | 2.123 | 1.839
x2 = 0.5523 | 838.46 | 834.13 | 829.78 | 2.212 | 1.902
x2 = 0.6492 | 830.89 | 826.62 | 822.37 | 2.275 | 1.96
x2 = 0.7421 | 822.55 | 818.36 | 814.15 | 2.303 | 1.998
x2 = 0.8315 | 812.73 | 808.63 | 804.54 | 2.309 | 1.998
x2 = 0.9174 | 806.19 | 802.09 | 798 | 2.345 | 2.015
